Reference: US11691962B2 (eXIthera Pharmaceuticals, Inc., priority 2018, dated 2023)

Tests used:
Format in all cases: biochemical
Factor XIa = Factor XIa (Homo sapiens (Human), UniProt P03951); test: Factor XIa enzyme inhibition assay (dose response, fluorogenic AMC substrate); conditions: read-out: hFXIa IC50
Summary of the method: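 Fluorogenic progress curves (30 min, 1-min reads, 30° C) were recorded for 0.25 nM FXIa cleaving 50 μM Glp-Pro-Arg-AMC in Hepes pH 7.4 buffer with NaCl and Tween 20. Compounds were serially two-fold diluted, and IC50 was fitted with a Hill equation.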

Trypsin = test: Dose response assay for protease inhibitors: trypsin; conditions: selectivity, trypsin over Factor XIa
Procedure: (§1) • Assay buffer: 20 mM Hepes, pH 7.4; 150 mM NaCl; 0.02% Tween 20 • Compounds: 10 mM stocks in DMSO • Substrate: 20 mM Glp-Pro-Arg-AMC, 25 mg/2.3 mL H2O (store at +4° C.) [Factor XIa, thrombin, and trypsin] • 20 mM Pro-Phe-Arg-AMC (Bachem I-1295), 25 mg/2.2 mL H2O • or Boc-Leu-Gly-Arg-AMC (Bachem I-1105), 25 mg/2.07 mL H2O • (store at +4° C.) [Factor Xa] • Enzyme: Factor XIa; 0.25 μM in 50% glycerol (20 μg/mL) • Trypsin; 0.2 μM in 50% glycerol (4.8 μg/mL) • Thrombin; 0.2 μM in 50% glycerol (7.34 μg/mL) • Factor Xa; 0.2 μM in 50% glycerol (9.2 μg/mL) • These stocks are aliquoted (˜100 μL/aliquot) and stored at −20° C. Methods: • 1. Dilute the substrate to 100 μM in assay buffer (30 μL/6 mL). The enzyme is diluted to 0.5 nM just prior to use (12 μL/6 mL for Factor XIa; 15 μL/6 mL for all of the rest.) • 2. Pipette 50 μL of substrate into each well of the 96 well (12×8) microtiter plate. (Column 1 is used as the 100% activity control and receives no compound, and Column 12 is the blank and receives no enzyme.) Add an additional 46 μL to column 2. • 3. Pipette 4 μL of each compound into the appropriate well in column 2 of the plate (unknowns assayed in triplicate, standard assayed in duplicate). The final compound concentration will be […] of the stock. • 4. Serially two-fold dilute the compound by mixing the sample in column 2, removing 50 μL to the next well (column 3), mix and remove to column 4, etc. until column 11. After mixing column 11, remove 50 μL and discard. • 5. Pipette 50 μL of buffer into column 12. Initiate the reaction by adding 50 μL of enzyme solution to each well of columns 1-11 as rapidly as possible. • 6. Read the plate in a spectrophotometer (SpectraMax) at 30° C., wherein each well is measured every 60 s for 30 min. For Factor Xa assays, each well is measured every 1 min for a total of 60 min. • 7. For Factor XIa assays, the compounds are assayed, in duplicate, at 3 different starting concentrations, 20, 2, and 0.2 μM; 1:10, 1:100, and 1:1000 dilution of 10 mM stock or at 2, 0.2, and 0.02 μM; 1:100, 1:1000, and 1:10,000 dilution of 10 mM stock. Data for each concentration are combined for graphing and data fitting. • 8. Data can be used both for estimation of IC50 and for estimation of Kon.

Thrombin = Thrombin (Homo sapiens (Human), UniProt P00734); test: Dose response assay for protease inhibitors: thrombin; conditions: selectivity, thrombin over Factor XIa
Procedure: as §1

Factor Xa = Factor Xa (Homo sapiens (Human), UniProt P00742); test: Dose response assay for protease inhibitors: Factor Xa; conditions: selectivity, Factor Xa over Factor XIa
Factor Xa, sequence (P00742 235-488): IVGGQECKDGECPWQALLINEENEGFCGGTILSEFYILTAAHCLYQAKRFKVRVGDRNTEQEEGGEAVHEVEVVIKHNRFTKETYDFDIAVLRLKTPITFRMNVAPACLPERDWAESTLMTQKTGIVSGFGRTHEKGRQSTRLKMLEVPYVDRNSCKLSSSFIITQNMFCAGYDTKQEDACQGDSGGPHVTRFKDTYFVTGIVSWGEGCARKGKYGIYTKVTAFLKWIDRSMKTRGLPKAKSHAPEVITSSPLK
Factor Xa, sequence (P00742 41-179 partner): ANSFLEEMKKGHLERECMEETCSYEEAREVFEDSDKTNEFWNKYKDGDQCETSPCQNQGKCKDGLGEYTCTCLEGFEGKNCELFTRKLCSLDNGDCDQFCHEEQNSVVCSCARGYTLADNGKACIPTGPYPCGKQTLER
Procedure: as §1

Factor XIa, sequence (P03951 388-625): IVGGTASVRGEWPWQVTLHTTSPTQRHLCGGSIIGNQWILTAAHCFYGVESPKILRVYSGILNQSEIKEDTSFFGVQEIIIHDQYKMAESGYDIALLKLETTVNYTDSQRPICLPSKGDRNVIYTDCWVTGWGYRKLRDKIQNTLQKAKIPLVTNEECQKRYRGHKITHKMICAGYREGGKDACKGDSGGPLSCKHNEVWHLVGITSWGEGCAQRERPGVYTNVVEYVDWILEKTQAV
Factor XIa, sequence (P03951 19-387 partner): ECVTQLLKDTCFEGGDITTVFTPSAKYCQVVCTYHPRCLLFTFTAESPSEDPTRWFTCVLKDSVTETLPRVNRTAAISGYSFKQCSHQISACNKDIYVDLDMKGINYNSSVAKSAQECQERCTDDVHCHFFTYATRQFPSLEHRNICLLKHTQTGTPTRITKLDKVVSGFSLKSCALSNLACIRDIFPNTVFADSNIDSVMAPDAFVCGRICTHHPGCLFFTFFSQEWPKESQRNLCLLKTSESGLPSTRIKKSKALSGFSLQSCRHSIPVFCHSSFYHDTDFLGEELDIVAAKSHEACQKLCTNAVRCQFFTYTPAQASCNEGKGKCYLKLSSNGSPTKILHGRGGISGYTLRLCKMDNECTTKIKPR

Compound	IC50 (Factor XIa)	Ratio: Trypsin/FXIa (Trypsin)	Ratio: Thrombin/FXIa (Thrombin)	Ratio: FXa/FXIa (Factor Xa)
CC[C@@H](NC(=O)N1C(=O)[C@H](Cc2ccnc(N)c2)[C@H]1C(=O)N(C)c1ccn(C)n1)c1cccc(F)c1F [Compound 1-134, (2S,3R)-3-((2-aminopyridin-4-yl)methyl)-N2-(1-methyl-1H-pyrazol-3-yl)-N1-((R)-1-(2,3-difluorophenyl)propyl)-N2-methyl-4-oxoazetidine-1,2-dicarboxamide]	< 10 nM	G (“G” indicates 1-100)	H (“H” indicates 101-1000)	I (“I” indicates > 500)
CC[C@@H](NC(=O)N1C(=O)[C@H](Cc2ccnc(N)c2)[C@H]1C(=O)N(C)c1cccs1)c1cccc(Cl)c1 [Compound 1-28, (2S,3R)-3-((2-aminopyridin-4-yl)methyl)-N2-(thiophen-2-yl)-N1-((R)-1-(3-chlorophenyl)propyl)-N2-methyl-4-oxoazetidine-1,2-dicarboxamide]	< 10 nM	G (“G” indicates 1-100)	H (“H” indicates 101-1000)	G (“G” indicates 1-100)
CC[C@@H](NC(=O)N1C(=O)[C@H](Cc2ccnc(N)c2)[C@H]1C(=O)N(C)c1nccn1C)c1ccc(C)cc1 [Compound 1-87, (2S,3R)-3-((2-aminopyridin-4-yl)methyl)-N2-(1-methyl-1H-imidazol-2-yl)-N1-((R)-1-(4-methylphenyl)propyl)-N2-methyl-4-oxoazetidine-1,2-dicarboxamide]	< 10 nM	G (“G” indicates 1-100)	H (“H” indicates 101-1000)	I (“I” indicates > 500)
CC[C@@H](NC(=O)N1C(=O)[C@H](Cc2ccnc(N)c2)[C@H]1C(=O)N(C)c1nccn1C)c1ccc(F)c(C)c1F [Compound 1-194, (2S,3R)-3-((2-aminopyridin-4-yl)methyl)-N2-(1-methyl-1H-imidazol-2-yl)-N1-((R)-1-(2,4-difluoro-3-methylphenyl)propyl)-N2-methyl-4-oxoazetidine-1,2-dicarboxamide]	< 10 nM	H (“H” indicates 101-1000)	H (“H” indicates 101-1000)	I (“I” indicates > 500)
CC[C@@H](NC(=O)N1C(=O)[C@H](Cc2cc(C)nc(N)c2)[C@H]1C(=O)N(C)c1cn(C)cn1)c1ccccc1 [Compound 1-52, (2S,3R)-3-((2-amino-6-methylpyridin-4-yl)methyl)-N2-(1-methyl-1H-imidazol-4-yl)-N1-((R)-1-phenylpropyl)-N2-methyl-4-oxoazetidine-1,2-dicarboxamide]	10 to 100 nM	G (“G” indicates 1-100)	G (“G” indicates 1-100)	H (“H” indicates 101-1000)
CC[C@@H](NC(=O)N1C(=O)[C@H](Cc2ccnc(N)c2)[C@H]1C(=O)N(C)c1nccn1C)c1ccc(C)c(Cl)c1 [Compound 1-103, (2S,3R)-3-((2-aminopyridin-4-yl)methyl)-N2-(1-methyl-1H-imidazol-2-yl)-N1-((R)-1-(3-chloro-4-methylphenyl)propyl)-N2-methyl-4-oxoazetidine-1,2-dicarboxamide]	< 10 nM	G (“G” indicates 1-100)	H (“H” indicates 101-1000)	H (“H” indicates 101-1000)
CN(C(=O)[C@@H]1[C@@H](Cc2ccnc(N)c2)C(=O)N1C(=O)NC(C1CCCCC1)C(F)(F)F)c1nccn1C (stereo in doubt) [Compound 1-56, (2S,3R)-3-((2-aminopyridin-4-yl)methyl)-N2-(1-methyl-1H-imidazol-2-yl)-N1-((R)-1-cyclohexyl-2,2,2-trifluoroethyl)-N2-methyl-4-oxoazetidine-1,2-dicarboxamide]	< 10 nM	G (“G” indicates 1-100)	H (“H” indicates 101-1000)	I (“I” indicates > 500)
CC[C@@H](NC(=O)N1C(=O)[C@H](Cc2ccnc(N)c2)[C@H]1C(=O)N(C)c1ccn(C)n1)c1ccc(C)c(Cl)c1 [Compound 1-129, (2S,3R)-3-((2-aminopyridin-4-yl)methyl)-N2-(1-methyl-1H-pyrazol-3-yl)-N1-((R)-1-(3-chloro-4-methylphenyl)propyl)-N2-methyl-4-oxoazetidine-1,2-dicarboxamide]	< 10 nM	G (“G” indicates 1-100)	H (“H” indicates 101-1000)	H (“H” indicates 101-1000)
CN(C(=O)[C@@H]1[C@@H](Cc2ccnc(N)c2)C(=O)N1C(=O)NCc1cccc(Cl)c1)c1ccn(C)n1 [Compound 1-26, (2S,3R)-3-((2-aminopyridin-4-yl)methyl)-N2-(1-methyl-1H-pyrazol-3-yl)-N1-((3-chlorophenyl)methyl)-N2-methyl-4-oxoazetidine-1,2-dicarboxamide]	10 to 100 nM	G (“G” indicates 1-100)	G (“G” indicates 1-100)	H (“H” indicates 101-1000)
CC[C@@H](NC(=O)N1C(=O)[C@H](Cc2cc(C)nc(N)c2)[C@H]1C(=O)N(C)c1ccn(C)n1)c1cccc(F)c1F [Compound 1-146, (2S,3R)-3-((2-amino-6-methylpyridin-4-yl)methyl)-N2-(1-methyl-1H-pyrazol-3-yl)-N1-((R)-1-(2,3-difluorophenyl)propyl)-N2-methyl-4-oxoazetidine-1,2-dicarboxamide]	< 10 nM	G (“G” indicates 1-100)	H (“H” indicates 101-1000)	I (“I” indicates > 500)
CC[C@@H](NC(=O)N1C(=O)[C@H](Cc2ccnc(N)c2)[C@H]1C(=O)N(C)c1cn(C)cn1)C1CCCCC1 [Compound 1-71, (2S,3R)-3-((2-aminopyridin-4-yl)methyl)-N2-(1-methyl-1H-imidazol-4-yl)-N1-((R)-1-cyclohexylpropyl)-N2-methyl-4-oxoazetidine-1,2-dicarboxamide]	< 10 nM	G (“G” indicates 1-100)	G (“G” indicates 1-100)	I (“I” indicates > 500)
CC[C@@H](NC(=O)N1C(=O)[C@H](Cc2cc(C)nc(N)c2)[C@H]1C(=O)N(C)c1cnn(C)c1)c1cc(C)cc(F)c1 [Compound 1-184, (2S,3R)-3-((2-amino-6-methylpyridin-4-yl)methyl)-N2-(1-methyl-1H-pyrazol-4-yl)-N1-((R)-1-(3-fluoro-5-methylphenyl)propyl)-N2-methyl-4-oxoazetidine-1,2-dicarboxamide]	< 10 nM	G (“G” indicates 1-100)	H (“H” indicates 101-1000)	I (“I” indicates > 500)
CC[C@@H](NC(=O)N1C(=O)[C@H](Cc2cc(C)nc(N)c2)[C@H]1C(=O)N(C)c1cnn(C)c1)c1cc(C)cc(C)c1 [Compound 1-185, (2S,3R)-3-((2-amino-6-methylpyridin-4-yl)methyl)-N2-(1-methyl-1H-pyrazol-4-yl)-N1-((R)-1-(3,5-dimethylphenyl)propyl)-N2-methyl-4-oxoazetidine-1,2-dicarboxamide]	< 10 nM	G (“G” indicates 1-100)	H (“H” indicates 101-1000)	I (“I” indicates > 500)
CC[C@@H](NC(=O)N1C(=O)[C@H](Cc2cc(C)nc(N)c2)[C@H]1C(=O)N(C)c1nccn1C)c1ccc(C)c(Cl)c1 [Compound 1-113, (2S,3R)-3-((2-amino-6-methylpyridin-4-yl)methyl)-N2-(1-methyl-1H-imidazol-2-yl)-N1-((R)-1-(3-chloro-4-methylphenyl)propyl)-N2-methyl-4-oxoazetidine-1,2-dicarboxamide]	< 10 nM	G (“G” indicates 1-100)	H (“H” indicates 101-1000)	H (“H” indicates 101-1000)
